Assay: solvent given as SMILES

`O=C1c2ccccc2C2=Cc3cccc[n+]3[B-](F)(F)N12` gave an emission maximum (in CCO) of 449 nm, an emission maximum (in Cc1ccccc1) of 459 nm and an emission maximum (in ClCCl) of 454 nm.
`O=c1oc2ccccc2c2c1c(=O)oc1cc(O)c3ccccc3c12` showed an emission maximum (in ClCCl) of 529 nm.
For `OC1(c2ccc(-c3cccs3)s2)CCC(c2ccccc2)CC1` (centres undefined), the emission maximum (in C1CCOC1) was 471 nm, the emission maximum (in CC#N) was 468 nm and the emission maximum (in CCCCCC) was 464 nm. For the same compound, the emission maximum (in CCO) was 460 nm, the emission maximum (in OCCOCCO) was 384 nm and the emission maximum (in c1ccncc1) was 385 nm.
With `CCN(CC)c1ccc2cc(-c3ccc(-c4ccc5ccc6c(-c7ccc(-c8cc9ccc(N(CC)CC)cc9oc8=O)cc7)ccc7ccc4c5c76)cc3)c(=O)oc2c1` the emission maximum (in ClC(Cl)Cl) was 475 nm.
In the case of `Cc1ccc(/C2=c3\cc/c(o3)=C(\c3ccc(C)cc3)c3ccc([nH]3)-c3ccc4n3[B-](F)(F)[N+]3=C(C=CC3=C4c3ccco3)c3ccc2[nH]3)cc1`, the emission maximum (in ClC(Cl)Cl) is reported as 731 nm.
Work on `COC(=O)C([NH3+])Cc1ccc2oc(-c3ccncc3)nc2c1` (centres undefined) yielded an emission maximum (in CC1CCCCC1) of 356.11 nm, an emission maximum (in CC#N) of 367.92 nm and an emission maximum (in CO) of 379.88 nm. The emission maximum (in O) was 402.82 nm.
For `CCOC(CN1C(=O)C2=C(c3ccc(OC)c(OC)c3)N(CC(OCC)OCC)C(=O)C2=C1c1ccc(OC)c(OC)c1)OCC`, the emission maximum (in ClC(Cl)Cl) was 538 nm.
Compound `CC1=CC(C)=[N+]2C1=C(c1c(-c3ccccn3)nc3ccccn13)c1c(C)cc(C)n1[B-]2(F)F` has an emission maximum (in ClCCl) of 536 nm.
For `CC1=[N+]2C(=C(c3ccccc3C)c3ccc(C)n3[B-]2(F)F)C=C1c1cc2n(c1)[B-](F)(F)[N+]1=CC=CC1=C2c1c(C)cc(C)cc1C`, the emission maximum (in C1CCCCC1) was 640 nm and the emission maximum (in CCOC(C)=O) was 679 nm.
For `N#Cc1c(N2CCCCC2)cc(-c2cccs2)c2c1CCc1ccccc1-2`, the emission maximum (in C1CCOC1) was 474 nm.
Compound `c1cc2c3cc1c1ccc4c(c1)c1cc(ccc1[C@]15OCCO[C@]41OCCO5)c1ccc4c(c1)c1cc(ccc1[C@]15OCCO[C@]41OCCO5)c1ccc(c3c1)[C@]13OCCO[C@]21OCCO3` has an emission maximum (in Cc1ccccc1) of 343 nm.
Work on `CCOC(=O)/C=C/c1cc2ccc(-c3cn(Cc4ccccc4)nn3)cc2oc1=O` yielded an emission maximum (in CCO) of 435 nm.
For `N#Cc1c(N2CCCCC2)cc(-c2cccc3ccccc23)c2c1C(=O)c1ccccc1-2`, the emission maximum (in C1CCOC1) was 460 nm.
`CC(C)[Si](C#CC1=CC2=c3cc(C#C[Si](C(C)C)(C(C)C)C(C)C)c4nc(C(F)(F)C(F)(F)C(F)(F)F)nc5c(C#C[Si](C(C)C)(C(C)C)C(C)C)cc(c3c54)C3=CC(C#C[Si](C(C)C)(C(C)C)C(C)C)=C4N=C(C(F)(F)C(F)(F)C(F)(F)F)N=C1C4C32)(C(C)C)C(C)C` (centres undefined) gave an emission maximum (in C1CCOC1) of 525 nm.
`Cc1c(C2=[N+]3C(=Cc4c(C)c5ccccc5n4[B-]3(F)F)c3ccccc32)[nH]c2ccccc12` gave an emission maximum (in C1CCOC1) of 646 nm, an emission maximum (in CC#N) of 637 nm and an emission maximum (in CCCCCC) of 644 nm. It also gave an emission maximum (in CO) of 643 nm, an emission maximum (in Cc1ccccc1) of 656 nm and an emission maximum (in ClCCl) of 648 nm.
In the case of `CCCCN1C(=O)C2=C(c3ccc(-c4ccccc4)cc3)NC(=O)C2=C1c1ccc(-c2ccccc2)cc1`, the emission maximum (in ClCCl) is reported as 545 nm.
In the case of `CCCCC(CC)COc1cc(OCC(CC)CCCC)c2c#cc3ccc4c(c3)c3cc(c#cc5cc(c#cc6ccc7c(c6)c6cc(c#cc1c2)ccc6n7CC(CC)CCCC)c(C(CCCC)OCCC)cc5C(CCCC)OCCC)ccc3n4CC(CC)CCCC` (centres undefined), the emission maximum (in ClCCl) is reported as 388 nm.
`CCCCCCn1c2cc(C=C(C#N)C#N)sc2c2sc3c(sc4c5sc(C=C(C#N)C#N)cc5n(CCCCCC)c43)c21` gave an emission maximum (in ClCCl) of 620 nm.
`CC1(C)CC(=O)c2c(F)c(F)cc(F)c2N1` gave an emission maximum (in CC#N) of 459 nm and an emission maximum (in CCO) of 499 nm.
Work on `c1ccc2c(c1)CCc1ccccc1N2c1c2ccccc2c(N2c3ccccc3CCc3ccccc32)c2ccccc12` yielded an emission maximum (in Cc1ccccc1) of 525 nm.
In the case of `COC(=O)c1[nH]c(-c2ccccc2)c2nnc3ccc(OC)cc3c12`, the emission maximum (in ClCCl) is reported as 475 nm.
With `CN1C(=O)/C(=C/c2ccncc2)N=C1c1ccccc1` the emission maximum (in C1COCCO1) was 471 nm, the emission maximum (in CC#N) was 475 nm and the emission maximum (in CCO) was 477 nm. It also gave an emission maximum (in CCOC(C)=O) of 472 nm and an emission maximum (in O) of 477 nm.
`CCn1c2ccccc2c2cc(/C=C/c3cccc(/C=C/c4ccc5c(c4)c4ccccc4n5CC)[n+]3CCCS(=O)(=O)[O-])ccc21` showed an emission maximum (in C1CCOC1) of 581 nm, an emission maximum (in CC#N) of 579 nm and an emission maximum (in CC(C)=O) of 578 nm. It also gave an emission maximum (in Cc1ccccc1) of 598 nm.
Compound `O=C(c1ccc(N2c3ccccc3Oc3ccccc32)cc1)c1ccc2sc3ccccc3c2c1` has an emission maximum (in C1CCOC1) of 594 nm and an emission maximum (in c1ccc2c(c1)c1ccccc1n2-c1ccc(-c2ccc(-n3c4ccccc4c4ccccc43)cc2)cc1) of 524 nm.
`CC(C)(C)c1cccc2c(O)cccc12` gave an emission maximum (in O) of 367 nm.
Work on `CCN1c2ccc(C3=CC(c4ccccc4)=[O+][B-](F)(F)O3)cc2Sc2cc(C3=CC(c4ccccc4)=[O+][B-](F)(F)O3)ccc21` yielded an emission maximum (in ClCCl) of 639 nm.
`CN(C)C(=O)c1ccc(-c2nc3ccc(N(C)C)cc3s2)cc1` showed an emission maximum (in C1CCCCC1) of 415 nm, an emission maximum (in CC#N) of 521 nm and an emission maximum (in CC(C)O) of 518 nm. It also gave an emission maximum (in CO) of 543 nm, an emission maximum (in CS(C)=O) of 534 nm and an emission maximum (in ClC(Cl)Cl) of 472 nm. It also gave an emission maximum (in c1ccccc1) of 457 nm.
`C1=Cc2ccc(N(c3ccccc3)c3ccccc3)cc2C2(c3cc(N(c4ccccc4)c4ccccc4)ccc31)c1ccccc1-c1ccccc12` gave an emission maximum (in ClCCl) of 461 nm.
In the case of `C=CCN(CC=C)c1ccc(-c2cc(-c3ccc(N(CC=C)CC=C)cc3)cc(-c3ccc(N(CC=C)CC=C)cc3)c2)cc1`, the emission maximum (in ClCCl) is reported as 397.56 nm.
In the case of `CC(C)=CCN1C(=O)c2cccc3c2c(cc2nc(C)oc23)C1=O`, the emission maximum (in CCO) is reported as 412 nm.
Compound `CCCCc1ccc2c(c1)c1ccc3cccc4c3c1c1c2c2cccc3ccc5c6cc(CCCC)ccc6c4c1c5c32` has an emission maximum (in ClCCl) of 506 nm.
Compound `CC1(C)Cc2c(c3ccccc3c3nc4ccccc4nc23)O1` has an emission maximum (in C1CCCCC1) of 475.96 nm, an emission maximum (in C1CCOC1) of 505.05 nm and an emission maximum (in CN(C)C=O) of 521.92 nm. For the same compound, the emission maximum (in CO) was 529.1 nm, the emission maximum (in ClC(Cl)Cl) was 505.05 nm and the emission maximum (in c1ccccc1) was 483.09 nm.
`COc1ccc(-c2ncc3ccccn23)cc1` showed an emission maximum (in ClC(Cl)Cl) of 469 nm.

Reference: the Deep4Chem optical property database
